In patent US20240150377A1, “MODULATORS OF CYSTIC FIBROSIS TRANSMEMBRANE CONDUCTANCE REGULATOR” (VERTEX PHARMACEUTICALS INCORPORATED, priority 2020, published 2024):
Where two headings read alike, the source gives them in different places. Each block holds one compound with its values, some of them ahead of it.

Biological target: T1, CFTR (Homo sapiens, UniProt P13569, DEL508-508)
T1 construct: endogenous in cells; host or cells: primary human bronchial epithelial cells from CF subjects (F508del/MF-HBE), differentiated at air-liquid interface
T1 sequence (P13569 with tags, fused parts or gaps DEL508-508): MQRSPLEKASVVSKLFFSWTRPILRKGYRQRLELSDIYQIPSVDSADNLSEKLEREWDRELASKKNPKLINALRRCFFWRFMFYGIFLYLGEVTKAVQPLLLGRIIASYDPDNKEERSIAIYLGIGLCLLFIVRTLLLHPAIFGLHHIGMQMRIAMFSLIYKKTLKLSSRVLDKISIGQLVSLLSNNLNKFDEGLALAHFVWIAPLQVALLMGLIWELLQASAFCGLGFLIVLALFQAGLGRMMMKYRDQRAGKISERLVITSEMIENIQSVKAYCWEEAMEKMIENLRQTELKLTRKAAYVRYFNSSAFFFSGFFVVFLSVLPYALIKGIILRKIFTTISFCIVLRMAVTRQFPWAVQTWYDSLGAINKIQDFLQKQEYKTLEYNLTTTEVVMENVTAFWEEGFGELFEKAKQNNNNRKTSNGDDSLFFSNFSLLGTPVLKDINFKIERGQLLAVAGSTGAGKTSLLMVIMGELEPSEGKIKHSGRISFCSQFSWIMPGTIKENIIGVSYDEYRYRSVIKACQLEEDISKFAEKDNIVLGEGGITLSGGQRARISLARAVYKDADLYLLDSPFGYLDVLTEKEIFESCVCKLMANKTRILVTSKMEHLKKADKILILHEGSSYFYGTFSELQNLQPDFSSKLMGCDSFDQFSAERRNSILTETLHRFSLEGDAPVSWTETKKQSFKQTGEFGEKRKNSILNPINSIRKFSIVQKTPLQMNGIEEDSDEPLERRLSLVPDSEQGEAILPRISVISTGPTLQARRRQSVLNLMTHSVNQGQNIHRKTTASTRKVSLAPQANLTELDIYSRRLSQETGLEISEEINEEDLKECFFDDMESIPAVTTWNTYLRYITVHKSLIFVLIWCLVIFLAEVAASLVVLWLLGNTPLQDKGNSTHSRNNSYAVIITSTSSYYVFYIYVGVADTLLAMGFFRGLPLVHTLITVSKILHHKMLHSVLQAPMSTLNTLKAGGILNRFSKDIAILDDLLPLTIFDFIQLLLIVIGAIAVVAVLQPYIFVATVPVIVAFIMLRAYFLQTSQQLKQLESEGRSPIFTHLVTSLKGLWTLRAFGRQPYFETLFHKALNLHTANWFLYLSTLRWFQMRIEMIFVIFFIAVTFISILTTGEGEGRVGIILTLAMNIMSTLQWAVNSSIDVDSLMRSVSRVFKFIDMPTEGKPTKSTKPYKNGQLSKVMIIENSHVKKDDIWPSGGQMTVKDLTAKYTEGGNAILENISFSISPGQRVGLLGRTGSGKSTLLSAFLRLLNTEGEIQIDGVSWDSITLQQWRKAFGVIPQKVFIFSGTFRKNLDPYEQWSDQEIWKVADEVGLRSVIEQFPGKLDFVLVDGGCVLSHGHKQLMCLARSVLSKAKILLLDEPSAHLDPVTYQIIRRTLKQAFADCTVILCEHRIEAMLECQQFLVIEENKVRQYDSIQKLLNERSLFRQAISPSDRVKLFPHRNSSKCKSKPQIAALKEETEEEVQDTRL
Test: HBE assay: Ussing chamber assay of CFTR-mediated short-circuit currents
Format: cell-based
Settings: for EC50: read-out: HBE EC50
Method in brief: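 CFTR-mediated Isc (μA/cm²) equals the peak response to apical 20 μM forskolin minus the residual after a 20 μM each BPO/GlyH-101/CFTR inhibitor 172 cocktail, recorded in Ussing chambers at Vhold 0 mV, 37 °C, pH 7.4, with 30 μM apical amiloride. Cells were F508del/MF HBE cultures preincubated 18-24 h with corrector (concentration range or 10 μM) plus 1 μM ivacaftor in 20% human serum.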

[1] = HBE assay, read-out: HBE Max activity (%)
[2] = Table 13, read-out: HBE Max Activity (%)
[3] = Table 10, read-out: HBE Max activity (%)
[4] = HBE assay, 10 μM, read-out: HBE Activity at 10 μM (%)
[5] = Table 13, at 10 μM, read-out: HBE Activity at 10 μM (%)
[6] = Table 12, at 10 μM, read-out: HBE Activity at 10 μM (%)
[7] = Table 11, read-out: HBE Max Activity (%)
[8] = Table 12, read-out: HBE Max Activity (%)
[9] = Table 10, at 10 μM, read-out: HBE activity at 10 (μM) (%)

EC50 (HBE assay): < 1 µM
Emax [1]: > 60%
Compound: Cc1cccc(C)c1-c1cc2nc(n1)NS(=O)(=O)c1cccc(c1)C(=O)N(Cc1ncc(OC3CCC3)cc1F)[C@H](CC1CC1)CO2 [Compound 1468]

activation at 10 µM [4]: > 60%
Compound: Cc1cccc(C)c1-c1cc2nc(n1)NS(=O)(=O)c1cccc(c1)C(=O)N(Cc1ncc(N3CCC4(CC4)C3)cn1)[C@H](CC(C)(C)C)CO2 [Compound 1504]

EC50 (HBE assay): < 1 µM
Emax [1]: > 60%
Compound: COCCN(c1cncc(CN2C(=O)c3cccc(c3)S(=O)(=O)Nc3nc(cc(-c4c(C)cccc4C)n3)OC[C@H]2CC(C)(C)C)n1)C1CCC1 [Compound 1417]

EC50 (HBE assay): < 1 µM
Compound: Cc1cccc(C)c1-c1cc2nc(n1)NS(=O)(=O)c1cccc(c1)C(=O)N(Cc1ccnc(N3CCC[C@H]3C(C)C)n1)[C@H](CC(C)(C)C)CO2 (stereo in doubt) [Compound 1476]

EC50 (Table 11): < 1 µM
Emax [7]: > 60%
Compound: Cc1cccc(C)c1-c1cc2nc(n1)NS(=O)(=O)c1cccc(c1)C(=O)N(Cc1cc(C(C)(C)C)ccn1)[C@H](CC(C)(C)C)CO2 [Compound 886]

EC50 (Table 13): 1 to 3 µM
Emax [2]: > 60%
Compound: Cc1cccc(C)c1-c1cc2nc(n1)NS(=O)(=O)c1cccc(c1)C(=O)N(Cc1ccc([C@@H](O)CO)cn1)[C@H](CC(C)(C)C)CO2 [Compound 1151]

EC50 (HBE assay): < 1 µM
Emax [1]: > 60%
Compound: Cc1cccc(C)c1-c1cc2nc(n1)NS(=O)(=O)c1cccc(c1)C(=O)N(Cc1cncc(NC3CCOCC3)n1)[C@H](CC(C)(C)C)CO2 [Compound 1420]

EC50 (Table 11): < 1 µM
Emax [7]: > 60%
Compound: Cc1cccc(C)c1-c1cc2nc(n1)NS(=O)(=O)c1cccc(c1)C(=O)N(Cc1cccc(NC(C)(C)C)n1)[C@H](CC(C)(C)C)CO2 [Compound 739]

activation at 10 µM [4]: > 60%
Compound: Cc1cccc(C)c1-c1cc2nc(n1)NS(=O)(=O)c1cccc(c1)C(=O)N(Cc1ncc(N3CC(F)(F)C(F)(F)C3)cn1)[C@H](CC(C)(C)C)CO2 [Compound 1500]

activation at 10 µM [5]: > 600%
Compound: Cc1cccc(C)c1-c1cc2nc(n1)NS(=O)(=O)c1cccc(c1)C(=O)N(CC1(N(C)C)CC3(CCC3)C1)[C@H](CC(C)(C)C)CO2 [Compound 997]

activation at 10 µM [5]: > 600%
Compound: Cc1cccc(C)c1-c1cc2nc(n1)NS(=O)(=O)c1cccc(c1)C(=O)N(Cc1ccc(C3CC4(C3)CC(C)(C)C4)cn1)[C@H](CC(C)(C)C)CO2 [Compound 1057]

activation at 10 µM [4]: > 60%
Compound: CC[C@@]1(CO)CCCN1c1cccc(CN2C(=O)c3cccc(c3)S(=O)(=O)Nc3nc(cc(-c4c(C)cccc4C)n3)OC[C@H]2CC(C)(C)C)n1 (stereo in doubt) [Compound 1459]

EC50 (HBE assay): < 1 µM
Emax [1]: > 60%
Compound: COC(C)(C)CN(C)c1cncc(CN2C(=O)c3cccc(c3)S(=O)(=O)Nc3nc(cc(-c4c(C)cccc4C)n3)OC[C@H]2CC(C)(C)C)n1 [Compound 1491]

activation at 10 µM (Table 11, at 10 μM, read-out: HBE Activity at 10 μM (%)): > 60%
EC50 (Table 11): < 1 µM
Emax [7]: > 60%
Compound: Cc1cccc(C(C)C)c1-c1cc2nc(n1)NS(=O)(=O)c1cccc(c1)C(=O)N(Cc1ccc(N3CCOCC3)cn1)[C@H](CC(C)(C)C)CO2 [Compound 821]

EC50 (HBE assay): < 1 µM
Emax [1]: > 60%
Compound: Cc1cccc(C)c1-c1cc2nc(n1)NS(=O)(=O)c1cccc(c1)C(=O)N(Cc1cccc(N3[C@H](C)CC[C@@H]3C)n1)[C@H](CC(C)(C)C)CO2 (stereo in doubt) [Compound 1401]

EC50 (Table 10): < 1 µM
Emax [3]: > 60%
Compound: COC[C@]1(O)CC[C@@H](CN2C(=O)c3cccc(c3)S(=O)(=O)Nc3nc(cc(-c4c(C)cccc4C)n3)OC[C@H]2CC(C)(C)C)CC1 [Compound 907]

activation at 10 µM [4]: > 60%
Compound: CCCOc1cnc(CN2C(=O)c3cccc(c3)S(=O)(=O)Nc3nc(cc(-c4c(C)cccc4C)n3)OC[C@H]2CC(C)(C)C)nc1 [Compound 1521]

activation at 10 µM [9]: > 60%
Compound: Cc1cccc(C)c1-c1cc2nc(n1)NS(=O)(=O)c1cccc(c1)C1Oc3ccc4ncccc4c3CN1[C@H](CC(C)(C)C)CO2 (stereo partly shown) [Compound 750]

EC50 (HBE assay): < 1 µM
Emax [1]: > 60%
Compound: COCCN(c1cncc(CN2C(=O)c3cccc(c3)S(=O)(=O)Nc3nc(cc(-c4c(C)cccc4C)n3)OC[C@H]2CC(C)(C)C)n1)C1CC2(CC2)C1 [Compound 1394]

More lines, now with the values behind:

Compound: Cc1cccc(C)c1-c1cc2nc(n1)NS(=O)(=O)c1cccc(c1)C(=O)N(CC1CC(N3CC(C)OC(C)C3)C1)[C@H](CC(C)(C)C)CO2 (stereo partly drawn) [Compound 65, (11R)-12-[[3-(2,6-Dimethylmorpholin-4-yl)cyclobutyl]methyl]-6-(2,6-dimethylphenyl)-11-(2,2-dimethylpropyl)-2,2-dioxo-9-oxa-2λ^6-thia-3,5,12,19-tetrazatricyclo[12.3.1.14,8]nonadeca-1(18),4(19),5,7,14,16-hexaen-13-one]
activation at 10 µM (read-out: HBE Activity at 10 μM (%)): > 60%

Compound: Cc1cccc(C)c1-c1cc2nc(n1)NS(=O)(=O)c1cccc(c1)C(=O)N(Cc1ccc(C3CC4(COC4)C3)cn1)[C@H](CC(C)(C)C)CO2 [Compound 164]
EC50 (Table 13): < 1 µM
Emax [2]: > 60%

Compound: Cc1cccc(C)c1-c1cc2nc(n1)NS(=O)(=O)c1cccc(c1)C(=O)N([C@@H](C)c1ccc(-c3c(C)n[nH]c3C)cc1)[C@H](CC(C)(C)C)CO2 [Compound 293]
EC50 (Table 10): < 1 µM
Emax [3]: > 60%

Compound: Cc1cccc(C)c1-c1cc2nc(n1)NS(=O)(=O)c1cccc(c1)C(=O)N(CC(=O)N1[C@H](C)CCC[C@@H]1C)[C@H](CC(C)(C)C)CO2 [Compound 190]
activation at 10 µM [5]: > 600%

Compound: Cc1cnc(CN2C(=O)c3cccc(c3)S(=O)(=O)Nc3nc(cc(-c4c(C)cccc4C)n3)OC[C@H]2CC(C)(C)C)nc1N(C)C(C)C [Compound 330]
activation at 10 µM [6]: > 600%

Compound: Cc1cccc(C)c1-c1cc2nc(n1)NS(=O)(=O)c1cccc(c1)C(=O)N(CC1CCN(CCC(C)(C)C)C1=O)[C@H](CC(C)(C)C)CO2 (stereo partly shown) [Compound 653]
EC50 (Table 11): < 1 µM

Compound: Cc1cccc(C)c1-c1cc2nc(n1)NS(=O)(=O)c1cccc(c1)C(=O)N(Cc1ncc(OC(C)C)c(C)n1)[C@H](CC(C)(C)C)CO2 [Compound 610]
EC50 (Table 11): < 1 µM
Emax [7]: > 60%

Compound: Cc1cccc(C)c1-c1cc2nc(n1)NS(=O)(=O)c1cccc(c1)C(=O)N(Cc1ccnc(N(C)C(C)C)n1)[C@H](CC(C)(C)C)CO2 [Compound 628]
EC50 (Table 11): < 1 µM
Emax [7]: > 60%

Compound: Cc1cccc(C)c1-c1cc2nc(n1)NS(=O)(=O)c1cccc(c1)C(=O)N(Cc1ccc(C3CC(C)(C)CCO3)cn1)[C@H](CC(C)(C)C)CO2 (stereo partly shown) [Compound 706]
EC50 (Table 12): < 1 µM
Emax [8]: > 60%

Compound: Cc1cccc(C)c1-c1cc2nc(n1)NS(=O)(=O)c1cccc(c1)C(=O)N(Cc1ncc(CC(C)C)cn1)[C@H](CC(C)(C)C)CO2 [Compound 120, (11R)-6-(2,6-Dimethylphenyl)-11-(2,2-dimethylpropyl)-12-[(5-isobutylpyrimidin-2-yl)methyl]-2,2-dioxo-9-oxa-2λ^6-thia-3,5,12,19-tetrazatricyclo[12.3.1.14,8]nonadeca-1(18),4(19),5,7,14,16-hexaen-13-one]
EC50 (Table 11): < 1 µM
Emax [7]: > 60%

Compound: Cc1cccc(C)c1-c1cc2nc(n1)NS(=O)(=O)c1cccc(c1)C(=O)N(Cc1ccc([Si](C)(C)C)cc1)[C@H](CC(C)(C)C)CO2 [Compound 795]
activation at 10 µM [9]: > 60%

Compound: Cc1cccc(C)c1-c1cc2nc(n1)NS(=O)(=O)c1cccc(c1)C(=O)N(CC(=O)N1CCC(c3ccccc3)CC1)[C@H](CC(C)(C)C)CO2 [Compound 203]
activation at 10 µM [5]: > 600%

Compound: COCCN(C)c1ccnc(CN2C(=O)c3cccc(c3)S(=O)(=O)Nc3nc(cc(-c4c(C)cccc4C)n3)OC[C@H]2CC(C)(C)C)n1 [Compound 657]
EC50 (Table 11): < 1 µM
Emax [7]: > 60%

Compound: Cc1cccc(C)c1-c1cc2nc(n1)NS(=O)(=O)c1cccc(c1)C(=O)N(CC(=O)NCCN1CCOCC1)[C@H](CC(C)(C)C)CO2 [Compound 166]
activation at 10 µM [6]: > 600%

Compound: Cc1cccc(C)c1-c1cc2nc(n1)NS(=O)(=O)c1cccc(c1)C(=O)N(CC(=O)N[C@H]1CC[C@H](C)CC1)[C@H](CC(C)(C)C)CO2 [Compound 194]
activation at 10 µM [5]: > 600%

Compound: Cc1cccc(C)c1-c1cc2nc(n1)NS(=O)(=O)c1cccc(c1)C(=O)N(CC(=O)NC1CCCCC1)[C@H](CC(C)(C)C)CO2 [Compound 205]
activation at 10 µM [5]: > 600%

Compound: COCC(C)N(C)c1ccnc(CN2C(=O)c3cccc(c3)S(=O)(=O)Nc3nc(cc(-c4c(C)cccc4C)n3)OC[C@H]2CC(C)(C)C)n1 (stereo partly shown) [Compound 448]
activation at 10 µM [6]: > 600%

Compound: Cc1cccc(C)c1-c1cc2nc(n1)NS(=O)(=O)c1cccc(c1)C(=O)N(Cc1cncc(N(C)CC3C4(CC4)C34CC4)n1)[C@H](CC(C)(C)C)CO2 [Compound 442]
EC50 (Table 12): < 1 µM
Emax [8]: > 60%

Compound: Cc1cccc(C)c1-c1cc2nc(n1)NS(=O)(=O)c1cccc(c1)C(=O)N(Cc1cc(C3CCOCC3)[nH]n1)[C@H](CC(C)(C)C)CO2 [Compound 449]
activation at 10 µM [6]: > 600%

Compound: Cc1cccc(C)c1-c1cc2nc(n1)NS(=O)(=O)c1cccc(c1)C(=O)N(Cc1nccc(N(C)C(C)C)n1)[C@H](CC1CC1)CO2 [Compound 459]
EC50 (Table 12): < 1 µM
Emax [8]: > 60%

Compound: Cc1cccc(C)c1-c1cc2nc(n1)NS(=O)(=O)c1cccc(c1)C(=O)N(Cc1cncc(N3CCC[C@H]3C)c1)[C@H](CC(C)(C)C)CO2 [Compound 284]
activation at 10 µM [6]: > 600%
